Experimental data reported in patent US10995099B2, “Compounds and their uses as ACC inhibitors” (NANJING RUIJIE PHARMATECH CO., LTD., priority 2017, dated 2021).
Like-named read-outs stand apart in the source and are kept apart here.

Key:
HepG2 = assay: EC50 in HepG2; type: cell-based
ACC2 = ACC2 (Homo sapiens (Human), UniProt O00763); assay: In vitro ACC inhibition assay (ADP-Glo), ACC2; type: biochemical
Procedure: (§1) Compounds of the present invention were evaluated in an in vitro ACC inhibition assay as described by Harwood, et al, 2003, the entirety of which is incorporated herein by reference.
(§2) In Vitro Acetyl-CoA Carboxylase (ACC) Inhibition Assay
(§3) An exemplary procedure for the in vitro ACC inhibition assay, which can be used to determine the inhibitory action of compounds of the invention toward either ACC1 or ACC2, follows. The ADP-Glo™ Kinase Assay kit from Promega was used. The ADP-Glo™ Kinase Assay is a luminescent ADP detection assay to measure enzymatic activity by quantifying the amount of ADP produced during an enzyme reaction. The assay is performed in two steps; first, after the enzyme reaction, an equal volume of ADP-Glo™ Reagent is added to terminate the reaction and deplete the remaining ATP. Second, the Kinase Detection Reagent is added to simultaneously convert ADP to ATP and allow the newly synthesized ATP to be measured using a luciferase/luciferin reaction. Luminescence can be correlated to ADP concentrations by using an ATP-to-ADP conversion curve. The detailed procedure is as follows. 50 μL of the compound being tested (600 uM in DMSO) was added to a 384-well dilution plate. The compound was diluted 1:3 in succession in DMSO for each row for 11 wells. 0.5 μL ACC2 working solution was added to 384-well white Optiplate assay plate. 0.5 μL diluted compound solution in each column from step 2 to assay plate, each row containing 2 replicates. […] The plates were incubated at room temperature for 15 minutes. 5 μL substrate working solution was added to each well to initiate reaction. Final ACC2 reaction concentrations consist of: 5 nM ACC2, 20 μM ATP, 20 μM acetyl-CoA, 12 mM NaHCO3, 0.01% Brij35, 2 mM DTT, 5% DMSO, test compound concentrations: 30 μM, 10 μM, 3.33 μM, 1.11 μM, 0.37 μM, 0.123 μM, 0.0411 μM, 0.0137 μM, 0.00457 μM, 0.00152 μM, and 0.00051 μM. Plates were incubated at room temperature for 60 minutes. 10 μL ADP glo reagent was added. Plates were incubated at room temperature for 40 minutes. 20 μL kinase detection reagent was added. Plates were incubated at room temperature for 40 minutes, then read on a Perkin Elmer EnVision 2104 plate reader for luminescence as Relative Light Units (RLU).
(§4) Data for each concentration, as well as the positive and negative controls were averaged, and the standard deviation calculated. Percent inhibition was calculated by the formula: 100×(average negative control-compound)/(average negative control-average positive control). The IC50 for each compound was calculated by fitting the data with a non-linear regress ion equation: Y=Bottom+(Top−Bottom)/(1+10((Log IC50−X* HillSlope)), where X is the log of compound concentration and Y is percent inhibition.

ACC1 = ACC1 (Homo sapiens (Human), UniProt Q13085); assay: In vitro ACC inhibition assay (ADP-Glo), ACC1; type: biochemical
Procedure: as §1, §2, §3, §4

[1] = ND630 versus RJ compounds, read-out: EC50 (μM) ND630/RJ-cmps(%)
[2] = 5 nM ACC2, 20 μM ATP, 20 μM acetyl-CoA, read-out: IC50 (μM) ACC2
[3] = ND630 versus RJ compounds, isoform not given, read-out: IC50 (μM) ND630/RJ-cmps(%)
[4] = HepG2, read-out: EC50 (μM) HepG2
[5] = Homo sapiens, HepG2, read-out: EC50 (μM) HepG2

ACC2, sequence (O00763 whole entry, species assumed): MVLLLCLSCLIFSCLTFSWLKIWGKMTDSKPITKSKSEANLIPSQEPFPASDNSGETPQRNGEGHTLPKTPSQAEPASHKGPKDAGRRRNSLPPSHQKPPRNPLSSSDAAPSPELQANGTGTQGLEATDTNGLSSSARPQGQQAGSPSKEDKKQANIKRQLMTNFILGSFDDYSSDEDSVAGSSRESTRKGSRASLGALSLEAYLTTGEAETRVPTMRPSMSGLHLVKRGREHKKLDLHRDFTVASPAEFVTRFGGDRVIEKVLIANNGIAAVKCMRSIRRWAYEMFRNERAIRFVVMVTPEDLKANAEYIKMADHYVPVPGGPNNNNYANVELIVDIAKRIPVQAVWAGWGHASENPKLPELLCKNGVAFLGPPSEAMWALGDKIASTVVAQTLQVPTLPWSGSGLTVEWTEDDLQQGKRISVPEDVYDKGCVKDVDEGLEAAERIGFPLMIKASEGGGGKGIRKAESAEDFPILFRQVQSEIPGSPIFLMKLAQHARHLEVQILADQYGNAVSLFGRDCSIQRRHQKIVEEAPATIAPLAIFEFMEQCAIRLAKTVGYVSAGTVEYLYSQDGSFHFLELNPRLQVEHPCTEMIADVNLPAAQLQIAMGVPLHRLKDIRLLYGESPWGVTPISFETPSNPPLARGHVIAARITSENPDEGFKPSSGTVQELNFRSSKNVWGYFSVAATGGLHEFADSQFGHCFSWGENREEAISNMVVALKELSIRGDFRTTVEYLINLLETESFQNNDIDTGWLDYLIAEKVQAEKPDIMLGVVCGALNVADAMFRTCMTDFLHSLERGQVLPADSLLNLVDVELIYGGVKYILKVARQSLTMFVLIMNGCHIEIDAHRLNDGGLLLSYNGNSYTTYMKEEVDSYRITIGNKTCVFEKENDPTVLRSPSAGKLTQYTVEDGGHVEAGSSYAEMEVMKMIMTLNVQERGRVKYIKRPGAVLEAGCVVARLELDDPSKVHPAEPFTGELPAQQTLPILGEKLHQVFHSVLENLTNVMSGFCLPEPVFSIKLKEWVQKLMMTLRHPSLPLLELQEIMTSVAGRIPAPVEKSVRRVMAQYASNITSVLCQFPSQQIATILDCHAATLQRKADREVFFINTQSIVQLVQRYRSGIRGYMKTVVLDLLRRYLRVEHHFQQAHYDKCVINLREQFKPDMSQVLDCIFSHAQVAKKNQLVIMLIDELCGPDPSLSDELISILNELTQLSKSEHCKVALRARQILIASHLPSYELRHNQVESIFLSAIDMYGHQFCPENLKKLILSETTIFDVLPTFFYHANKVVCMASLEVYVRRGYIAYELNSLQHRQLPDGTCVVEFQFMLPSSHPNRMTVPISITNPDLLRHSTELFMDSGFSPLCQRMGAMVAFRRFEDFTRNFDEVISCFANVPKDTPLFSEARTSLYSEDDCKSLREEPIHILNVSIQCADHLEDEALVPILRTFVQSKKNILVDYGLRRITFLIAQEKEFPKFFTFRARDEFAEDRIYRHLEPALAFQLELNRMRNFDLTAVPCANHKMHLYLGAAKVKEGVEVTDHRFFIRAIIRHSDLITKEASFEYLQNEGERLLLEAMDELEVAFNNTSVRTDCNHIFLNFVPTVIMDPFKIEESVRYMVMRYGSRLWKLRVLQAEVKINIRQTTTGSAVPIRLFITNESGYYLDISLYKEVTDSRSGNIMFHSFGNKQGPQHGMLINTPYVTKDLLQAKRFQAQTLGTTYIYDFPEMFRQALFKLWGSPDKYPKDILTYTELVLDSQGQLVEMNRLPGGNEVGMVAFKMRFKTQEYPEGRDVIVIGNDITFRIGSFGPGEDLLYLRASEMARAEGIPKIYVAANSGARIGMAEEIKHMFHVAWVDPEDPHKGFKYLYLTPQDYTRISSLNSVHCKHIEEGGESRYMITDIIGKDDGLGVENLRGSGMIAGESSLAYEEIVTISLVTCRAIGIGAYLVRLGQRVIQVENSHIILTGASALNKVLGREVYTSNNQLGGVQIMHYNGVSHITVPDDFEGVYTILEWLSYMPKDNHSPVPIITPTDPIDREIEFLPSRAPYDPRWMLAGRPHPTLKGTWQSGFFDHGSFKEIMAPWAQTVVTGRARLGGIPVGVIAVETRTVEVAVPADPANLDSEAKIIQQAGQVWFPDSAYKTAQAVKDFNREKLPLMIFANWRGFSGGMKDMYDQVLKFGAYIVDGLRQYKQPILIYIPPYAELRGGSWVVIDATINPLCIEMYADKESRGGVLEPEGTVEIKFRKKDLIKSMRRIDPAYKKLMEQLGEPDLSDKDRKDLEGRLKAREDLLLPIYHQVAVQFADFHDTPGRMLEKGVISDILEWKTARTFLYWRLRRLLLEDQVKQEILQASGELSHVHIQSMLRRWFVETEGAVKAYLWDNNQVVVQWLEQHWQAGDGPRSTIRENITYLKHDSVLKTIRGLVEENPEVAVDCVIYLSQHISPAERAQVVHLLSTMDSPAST

| Structure (SMILES) | EC50 (HepG2; [1]) [µM] | IC50 (ACC2; [2]) [µM] | IC50 (ACC2; [3]) [µM] | EC50 (HepG2; [4]) [µM] | IC50 (ACC1) [µM] | EC50 (HepG2; [5]) [µM] | EC50 (HepG2; Homo sapiens, ND630 versus RJ compounds, read-out: EC50 (μM) ND630/RJ-cmps(%)) [µM] |
| --- | --- | --- | --- | --- | --- | --- | --- |
| COCc1sc2c(c1C)c(=O)n(C1(C(=O)O)CCCC1)c(=O)n2C[C@H](CC1CCOCC1)c1ccccc1OC [Example 27] | 0.1 to 1 | > 1 | 0.003 to 0.005 | – | – | – | – |
| COc1ccccc1C(Cn1c(=O)n(C2(C(N)=O)CCCC2)c(=O)c2c(C)c(Br)sc21)OC1CCOCC1 (stereo not shown) [Example 48] | > 1 | < 0.01 | 0.003 to 0.005 | 0.1 to 1 | – | – | – |
| COc1ccccc1[C@@H](Cn1c(=O)n(C2(C(=O)O)CC2)c(=O)c2c(C)c(Br)sc21)OC1CCOCC1 [Example 32] | 0.1 to 1 | 0.1 to 1 | 0.003 to 0.005 | – | – | – | – |
| COc1ccccc1[C@H](Cn1c(=O)n(C(C)(C)C(=O)OC(C)(C)C)c(=O)c2c(C)c(Br)sc21)OC1CCOCC1 [Example 68] | – | 0.1 to 1 | > 0.01 | – | > 0.05 | – | – |
| COCCNC(=O)CC1(n2c(=O)c3c(C)c(-c4ncco4)sc3n(CC(OC3CCOCC3)c3ccccc3OC)c2=O)CC1 (stereo not shown) [Example 65] | – | 0.01 to 0.1 | – | > 1 | – | – | – |
| COc1ccccc1[C@H](Cn1c(=O)n(C2(C(=O)O)CCC2)c(=O)c2c(C)c(CN)sc21)OC1CCOCC1 [Example 34] | 0.1 to 1 | > 1 | 0.003 to 0.005 | – | – | – | – |
| COc1ccccc1C(Cn1c(=O)n(C2(CC(=O)O)CC2)c(=O)c2c(C)c(-c3ncco3)sc21)OC1CCOCC1 (stereo not shown) [Example 82] | > 1 | 0.01 to 0.1 | 0.005 to 0.01 | 0.01 to 0.1 | – | – | – |
| COc1ccccc1[C@H](Cn1c(=O)n(C2(C(=O)O)CC2)c(=O)c2c(C)c(-n3nccn3)sc21)OC1CCOCC1 [Example 49] | 0.1 to 1 | < 0.01 | 0.003 to 0.005 | 0.1 to 1 | – | – | – |
| COc1ccccc1C(Cn1c(=O)n(C2(C(=O)O)CC2)c(=O)c2c(C)c(-c3ncco3)sc21)OC1CCOCC1 (stereo not shown) [Example 3, 1-[1-[2-(2-methoxyphenyl)-2-tetrahydropyran-4-yloxy-ethyl]-5-methyl-6-oxazol-2-yl-2,4-dioxo-thieno[2,3-d]pyrimidin-3-yl]cyclopropanecarboxylic acid] | – | 0.01 to 0.1 | 0.005 to 0.01 | – | – | 0.01 to 0.1 | > 1 |
| COc1ccccc1[C@H](Cn1c(=O)n(C2(C(=O)O)CC2)c(=O)c2c(C)c(-n3cncn3)sc21)OC1CCOCC1 [Example 56] | – | 0.1 to 1 | 0.005 to 0.01 | – | – | – | – |
| CNC(=O)C1(n2c(=O)c3c(C)c(Br)sc3n(CC(OC3CCOCC3)c3ccccc3OC)c2=O)CCCC1 (stereo not shown) [Example 50] | 0.1 to 1 | 0.01 to 0.1 | 0.003 to 0.005 | – | – | – | – |
| COc1ccccc1[C@H](Cn1c(=O)n(C2(CC(=O)O)CC2)c(=O)c2c(C)c(Br)sc21)OC1CCOCC1 [Example 59] | – | 0.01 to 0.1 | > 0.01 | – | 0.01 to 0.05 | – | – |
| COc1ccccc1[C@H](Cn1c(=O)n(C(C)(C)C(=O)OC(C)(C)C)c(=O)c2c(C)c(-c3ncco3)sc21)OC1CCOCC1 [Example 66] | – | 0.01 to 0.1 | > 0.01 | – | 0.001 to 0.01 | – | – |
| COc1ccccc1[C@H](Cn1c(=O)n(C2(C(=O)O)CC2)c(=O)c2c(C)csc21)OC1CCOCC1 [Example 17] | – | > 1 | 0.005 to 0.01 | – | – | – | – |
| COc1ccccc1C(Cn1c(=O)n(C2(C(=O)O)CCC2)c(=O)c2c(C)c(-c3ncco3)sc21)OC1CCOCC1 (stereo not shown) [Example 26] | 0.1 to 1 | < 0.01 | 0.003 to 0.005 | – | – | – | – |
| CNC(=O)C1(n2c(=O)c3cc(Br)sc3n(C[C@H](OC3CCOCC3)c3ccccc3OC)c2=O)CC1 [Example 57] | – | 0.1 to 1 | 0.005 to 0.01 | 0.1 to 1 | – | – | – |
| COc1ccccc1C(Cn1c(=O)n(C2(C(=O)O)CCCC2)c(=O)c2c(C)c(-c3ncco3)sc21)OC1CCOCC1 (stereo not shown) [Example 25] | 0.1 to 1 | < 0.01 | 0.003 to 0.005 | – | – | – | – |
| COc1ccccc1C(Cn1c(=O)n(C(C)(C)C(=O)O)c(=O)c2cc(C)c(Br)cc21)OC1CCOCC1 (stereo not shown) [Example 12] | 0.01 to 0.1 | > 1 | 0.005 to 0.01 | – | – | – | – |
| COc1ccccc1[C@H](Cn1c(=O)n(C2(C(=O)O)CC2)c(=O)c2cc(-c3ncco3)ccc21)OC1CCOCC1 [Example 39] | 0.01 to 0.1 | > 1 | 0.005 to 0.01 | 0.1 to 1 | – | – | – |
| COc1ccccc1C(Cn1c(=O)n(C(C)(C)C(=O)O)c(=O)c2cc(C)c(-c3ncco3)cc21)OC1CCOCC1 (stereo not shown) [Example 11] | 0.01 to 0.1 | > 1 | 0.005 to 0.01 | – | – | – | – |
| COc1ccccc1C(O)Cn1c(=O)n(C(C)(C)C(=O)O)c(=O)c2cc(C)c(-c3ncco3)cc21 (stereo not shown) [Example 13] | 0.01 to 0.1 | > 1 | 0.005 to 0.01 | – | – | – | – |
| COc1ccccc1C(Cn1c(=O)n(C2(CC(=O)N3CCOCC3)CC2)c(=O)c2c(C)c(Br)sc21)OC1CCOCC1 (stereo not shown) [Example 23] | 0.1 to 1 | 0.1 to 1 | 0.003 to 0.005 | – | – | – | – |
| COc1ccccc1C(Cn1c(=O)n(C2(C(=O)O)CC2)c(=O)c2c(C)c(Br)sc21)OC1CCOCC1 (stereo not shown) [Example 4, 1-(6-bromo-1-(2-(2-methoxyphenyl)-2-(tetrahydro-2H-pyran-4-yloxy)ethyl)-5-methyl-2,4-dioxo-1,2-dihydrothieno[2,3-d]pyrimidin-3(4H)-yl)cyclopropanecarboxylic Acid] | – | 0.01 to 0.1 | 0.005 to 0.01 | – | – | 0.01 to 0.1 | – |
| COc1ccccc1C(Cn1c(=O)n(C(C)(C)C(=O)O)c(=O)c2c(C)c(Br)sc21)OC1CCOCC1 (stereo not shown) [Example 10] | > 1 | 0.01 to 0.1 | 0.005 to 0.01 | 0.1 to 1 | – | – | – |
| COc1ccccc1[C@H](Cn1c(=O)n(C2(C(=O)O)CC2)c(=O)c2c(C)c(-n3cccn3)sc21)OC1CCOCC1 [Example 45] | > 1 | < 0.01 | 0.005 to 0.01 | 0.1 to 1 | – | – | – |
| COc1ccccc1[C@@H](Cn1c(=O)n(C2(C(=O)O)CC2)c(=O)c2c(C)c(-c3ncco3)sc21)OC1CCOCC1 [Example 28] | 0.1 to 1 | 0.1 to 1 | 0.003 to 0.005 | – | – | – | – |
| COc1ccccc1[C@H](Cn1c(=O)n(C2(C(=O)O)CC2)c(=O)c2c(C)c(-c3cnco3)sc21)OC1CCOCC1 [Example 80] | > 1 | 0.01 to 0.1 | 0.005 to 0.01 | > 1 | – | – | – |
| COc1ccccc1[C@H](Cn1c(=O)n(C(C)(C)C(=O)O)c(=O)c2c(C)c(-c3nnco3)sc21)OC1CCOCC1 [Example 9] | > 1 | 0.1 to 1 | 0.005 to 0.01 | > 1 | – | – | – |
| COc1ccccc1[C@H](Cn1c(=O)n(C(C)(C)C(=O)O)c(=O)c2c(C)c(-c3ncco3)sc21)OC1CCOCC1 [Example 8] | > 1 | 0.01 to 0.1 | 0.005 to 0.01 | > 1 | – | – | – |
